For two compounds, IC50 and melting point results are on record in patent publication US20110257170A1, “4-MORPHOLINO-PYRIDO[3,2-D]PYRIMIDINES” (MERCK SERONO SA, priority 2008, published 2011).

Usually IC50 stands for the concentration needed to halve the response being measured. For orientation: melting point means the temperature of the solid-liquid transition.

The test system of series [1] is T1, Human recombinant GST-PI3K.
T1 construct: fused on or other part: GST tag
Briefly: PI3K lipid phosphorylation scintillation proximity assay (neomycin-coated SPA beads). Conditions: 120 min at room temperature, isoform not stated. It counts as biochemical. The source says: The efficacy of compounds of the invention in inhibiting the PI3K induced-lipid phosphorylation may be tested in the following binding assay. The assay combines the scintillation proximity assay technology (SPA, Amersham) with the capacity of neomycin (a polycationic antibiotic) to bind phospholipids with high affinity and specificity. The Scintillation Proximity Assay is based on the properties of weakly emitting isotopes (such as ^3H, ^125I, ^33P). Coating SPA beads with neomycin allows the detection of phosphorylated lipid substrates after incubation with recombinant PI3K and radioactive ATP in the same well, by capturing the radioactive phospholipids to the SPA beads through their specific binding to neomycin. […] After precipitation of the neomycin-coated PVT SPA beads for 5 minutes at 1500×g, radioactive Ptdlns(3)P is quantified by scintillation counting in a Wallac MicroBeta™ plate counter. […]
(In general: SPA uses beads or plates that emit light when radiolabelled molecules are held near them.)

For the compound `Cc1ccc2nc(Cl)nc(N3CCOCC3)c2n1` [Example E-34, 2-Chloro-6-methyl-4-morpholin-4-ylpyrido[3,2-d]pyrimidine], in series [1], the IC50 came to 8.61 µM.

As to `COC(=O)c1cc(Cl)c2nc(Cl)nc(N3CCOCC3)c2n1` [Example E-1, Methyl 2,8-dichloro-4-morpholin-4-yl-pyrido[3,2-d]pyrimidine-6-carboxylate], the melting point was 212 to 213 °C (dec.).
